Target: LC3B (Homo sapiens, UniProt Q9GZQ8)
Test: Fluorescence Polarization (FP) Assay: displacement of FITC-labeled peptide from GST-LC3B
Assay type: binding
Conditions: Fluorescence Polarization assay; GST-LC3B 180 nM, FITC-labeled peptide 18 nM, 25° C.; read-out: IC50
Description: The compounds of the present invention for regulating the autophagy-related protein LC3B were tested by Fluorescence Polarization (FP) Assay.
Fluorescence Polarization (FP) Assay Test

Row | IC50 | SMILES
1 | 15 to 100 µM | O=C1CC(c2ccc(-n3ccnc3)nc2)CC(=O)C1=CNCCN1CCN(CCO)CC1 (centres unmarked) [Compound 82, 5-(6-(1H-imidazol-1-yl)pyridin-3-yl)-2-(((2-(4-(2-hydroxyethyl)piperazin-1-yl)ethyl)amino)methylene) cyclohexane-1,3-dione]
2 | 15 to 100 µM | O=C1CC(c2ccc(Nc3nccs3)nc2)CC(=O)C1=CNCCN1CCN(CCO)CC1 (centres unmarked) [Compound 83, 2-(((2-(4-(2-hydroxyethyl)piperazin-1-yl)ethyl)amino)methylene)-5-(6-(thiazol-2-ylamino)pyridin-3-yl)cyclohexane-1,3-dione]
3 | 15 to 100 µM | COCCN1c2ccccc2Sc2cc(C3CC(=O)C(=CNCCN4CCN(CCO)CC4)C(=O)C3)ccc21 (centres unmarked) [Compound 84, 2-(((2-(4-(2-hydroxyethyl)piperazin-1-yl)ethyl)amino)methylene)-5-(10-(2-methoxyethyl)-10H-phenothiazin-3-yl)cyclohexane-1,3-dione]
4 | 15 to 100 µM | Nc1nc2c(C3CC(=O)C(=CNCCN4CCN(CCO)CC4)C(=O)C3)cccc2s1 (centres unmarked) [Compound 85, 5-(2-aminobenzo[d]thiazol-4-yl)-2-(((2-(4-(2-hydroxyethyl)piperazin-1-yl)ethyl)amino)methylene)cyclohexane-1,3-dione]
5 | 15 to 100 µM | O=C1CC2(CCC2)CC(=O)C1=CNCCN1CCN(CCO)CC1 [Compound 86, 7-(((2-(4-(2-hydroxyethyl)piperazin-1-yl)ethyl)amino)methylene)-spiro[3.5]nonane-6,8-dione]
6 | 15 to 100 µM | O=C1CC(c2ccc(-n3ccnc3)cc2)CC(=O)C1=CNCCN1CCN(CCO)CC1 (centres unmarked) [Compound 87, 5-(4-(1H-imidazol-1-yl)phenyl)-2-(((2-(4-(2-hydroxyethyl)piperazin-1-yl)ethyl)amino)methylene) cyclohexane-1,3-dione]
7 | 3 to 15 µM | O=C1CC(c2cnc3ccccc3n2)CC(=O)C1=CNCCN1CCN(CCO)CC1 (centres unmarked) [Compound 88, 2-(((2-(4-(2-hydroxyethyl)piperazin-1-yl)ethyl)amino)methylene)-5-(quinoxalin-2-yl)cyclohexane-1,3-dione]
8 | 100 to 1000 µM | O=C1CC(c2ccc(OCCN3CCOCC3)nc2)CC(=O)C1=CNCCN1CCN(CCO)CC1 (centres unmarked) [Compound 89, 2-(((2-(4-(2-hydroxyethyl)piperazin-1-yl)ethyl)amino)methylene)-5-(6-(2-morpholinoethoxy)pyridin-3-yl)cyclohexane-1,3-dione]
9 | 100 to 1000 µM | O=C1CC(c2cncnc2)CC(=O)C1=CNCCN1CCN(CCO)CC1 (centres unmarked) [Compound 90, 2-(((2-(4-(2-hydroxyethyl)piperazin-1-yl)ethyl)amino)methylene)-5-(pyrimidin-5-yl)cyclohexane-1,3-dione]
10 | 15 to 100 µM | O=C1CC(c2cnc(N3CCOCC3)nc2)CC(=O)C1=CNCCN1CCN(CCO)CC1 (centres unmarked) [Compound 91, 2-(((2-(4-(2-hydroxyethyl)piperazin-1-yl)ethyl)amino)methylene)-5-(2-morpholino-pyrimidin-5-yl)cyclohexane-1,3-dione]
11 | 15 to 100 µM | O=C1CC(c2ccc(S(=O)(=O)N3CCOCC3)cc2)CC(=O)C1=CNCCN1CCN(CCO)CC1 (centres unmarked) [Compound 92]
12 | 3 to 15 µM | O=C1CC(c2cccc3[nH]ncc23)CC(=O)C1=CNCCN1CCN(CCO)CC1 (centres unmarked) [Compound 93, 2-(((2-(4-(2-hydroxyethyl)piperazin-1-yl)ethyl)amino)methylene)-5-(1H-indazol-4-yl)cyclohexane-1,3-dione]
13 | 15 to 100 µM | O=C1CC(C(F)(F)F)CC(=O)C1=CNCCN1CCN(CCO)CC1 (centres unmarked) [Compound 94, 2-(((2-(4-(2-hydroxyethyl)piperazin-1-yl)ethyl)amino)methylene)-5-(trifluoromethyl) cyclohexane-1,3-dione]
14 | 15 to 100 µM | O=C1CC(c2ccccc2)OC(=O)C1=CNCCN1CCN(CCO)CC1 (centres unmarked) [Compound 95, 3-(((2-(4-(2-hydroxyethyl)piperazin-1-yl)ethyl)amino)methylene)-6-phenyldihydro-2H-pyran-2,4(3H)-dione]

Reference: patent US11319303B2 (WIGEN BIOMEDICINE TECHNOLOGY (SHANGHAI) CO., LTD., priority 2017, dated 2022)
